According to patent publication US20230081390A1, “INHIBITORS OF RAF KINASES” (Kinnate Biopharma Inc., priority 2019, published 2023):

Target: human RAF1 (Homo sapiens, UniProt P04049)
Assay: Protein kinase assay (33P-ATP filter binding), human RAF1, 10-dose IC50
Type: biochemical
Details: MEK1 (K97R) substrate 3 micromolar, ATP 10 micromolar, read-out: RAF-1 IC50
Procedure: In brief, for each reaction, kinase and substrate were mixed in a buffer containing 20 mM HEPES (pH 7.5), 10 mM MgCl2, 1 mM EGTA, 0.02% Brij35, 0.02 mg/mL BSA, 0.1 mM Na3VO4, 2 mM DTT, and […]. All compounds were solubilized in DMSO. Compounds were then added to each reaction mixture via acoustic dispense using an ECHO 550 nanoliter dispenser. For human RAF1 testing, human MEK1 (K97R) was used as a substrate at a concentration of 3 micromolar, with a final ATP concentration of 10 micromolar. […] Reactions were carried out at room temperature for 2 hr and spotted onto P81 ion exchange cellulose chromatography paper (Reaction Biology). […] The percent remaining kinase activity relative to a vehicle-containing (DMSO) kinase reaction was calculated for each kinase/inhibitor pair. IC50 values were calculated using Prism 5 (GraphPad).

Sequence of human RAF1 (P04049 whole entry): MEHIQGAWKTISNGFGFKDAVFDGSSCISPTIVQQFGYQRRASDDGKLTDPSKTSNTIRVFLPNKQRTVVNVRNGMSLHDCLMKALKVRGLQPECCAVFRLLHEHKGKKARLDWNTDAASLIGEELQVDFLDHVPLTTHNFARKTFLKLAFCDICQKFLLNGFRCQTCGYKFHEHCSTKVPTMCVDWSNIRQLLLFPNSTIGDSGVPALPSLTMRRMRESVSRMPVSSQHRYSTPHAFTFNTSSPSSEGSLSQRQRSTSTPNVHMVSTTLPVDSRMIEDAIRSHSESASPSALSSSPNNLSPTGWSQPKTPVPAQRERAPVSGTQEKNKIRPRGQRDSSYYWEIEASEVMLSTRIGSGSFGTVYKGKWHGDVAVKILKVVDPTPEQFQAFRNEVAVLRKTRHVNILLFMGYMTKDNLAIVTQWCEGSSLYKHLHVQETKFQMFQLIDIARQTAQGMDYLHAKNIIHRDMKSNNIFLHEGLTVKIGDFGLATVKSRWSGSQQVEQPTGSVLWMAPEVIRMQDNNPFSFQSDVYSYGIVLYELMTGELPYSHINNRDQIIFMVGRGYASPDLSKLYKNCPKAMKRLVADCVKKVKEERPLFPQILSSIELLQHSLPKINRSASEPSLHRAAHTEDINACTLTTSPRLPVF

SMILES | IC50
Cc1ccc(NC(=O)n2ccc(C(=O)C(F)(F)F)c2)cc1-c1cc(OCCO)nc(N2CCOCC2)c1 [Example 147, N-[3-[2-(2-hydroxyethoxy)-6-(morpholin-4-yl)pyridin-4-yl]-4-methylphenyl]-3-(2,2,2-trifluoroacetyl)pyrrole-1-carboxamide] | 1000 to 10000 nM
Cc1cc(F)c(NC(=O)N2CC(C)C(C(F)(F)F)C2)cc1-c1cc(OCCO)nc(N2CCOCC2)c1 (single isomer, unassigned) [Example 52, N-[2-fluoro-5-[2-(2-hydroxyethoxy)-6-(morpholin-4-yl)pyridin-4-yl]-4-methylphenyl]-3-methyl-4-(trifluoromethyl)pyrrolidine-1-carboxamide] | < 10 nM
Cc1cc(F)c(NC(=O)NC2CC2C(F)(F)F)cc1-c1cc(OCCO)nc(N2CCOCC2)c1 (centres unmarked) [Example 43, 1-[2-fluoro-5-[2-(2-hydroxyethoxy)-6-(morpholin-4-yl)pyridin-4-yl]-4-methylphenyl]-3-[2-(trifluoromethyl)cyclopropyl]urea] | < 10 nM
Cc1cc(F)c(NC(=O)N2CC3CCC3(C(F)(F)F)C2)cc1-c1cc(OCCO)nc(N2CCOCC2)c1 (single isomer, unassigned) [Example 82, N-[2-fluoro-5-[2-(2-hydroxyethoxy)-6-(morpholin-4-yl)pyridin-4-yl]-4-methylphenyl]-1-(trifluoromethyl)-3-azabicyclo[3.2.0]heptane-3-carboxamide] | < 10 nM
Cc1ccc(NC(=O)N2CCC3(C2)CC(F)(F)C3)cc1-c1cc(OCCO)nc(N2CCOCC2)c1 [Example 167, 2,2-difluoro-N-(3-(2-(2-hydroxyethoxy)-6-morpholinopyridin-4-yl)-4-methylphenyl)-6-azaspiro[3.4]octane-6-carboxamide] | < 10 nM
Cc1cc(F)c(NC(=O)N2CC[C@H](OC(F)(F)F)C2)cc1-c1cnc(OC2CCOCC2)c(N2CCOCC2)c1 [Example 127, (3S)-N-[2-fluoro-4-methyl-5-[5-(morpholin-4-yl)-6-(oxan-4-yloxy)pyridin-3-yl]phenyl]-3-(trifluoromethoxy)pyrrolidine-1-carboxamide] | < 10 nM
Cc1cc(F)c(NC(=O)N2CC[C@H](CC(F)(F)F)C2)cc1-c1cc(OCCO)nc(N2CCOCC2)c1 [Example 36, (3R)-N-[2-fluoro-5-[2-(2-hydroxyethoxy)-6-(morpholin-4-yl)pyridin-4-yl]-4-methylphenyl]-3-(2,2,2-trifluoroethyl)pyrrolidine-1-carboxamide] | < 10 nM
Cc1cc(F)c(NC(=O)N2CC[C@@H](OC(F)(F)F)C2)cc1-c1cnc(OC2CCOCC2)c(N2CCOCC2)c1 [Example 126, (3R)-N-[2-fluoro-4-methyl-5-[5-(morpholin-4-yl)-6-(oxan-4-yloxy)pyridin-3-yl]phenyl]-3-(trifluoromethoxy)pyrrolidine-1-carboxamide] | < 10 nM
Cc1cc(F)c(NC(=O)N2C[C@H](CF)[C@@H](C(F)(F)F)C2)cc1-c1cc(OCCO)nc(N2CCOCC2)c1 (relative stereo) [Example 39, (trans)-N-[2-fluoro-5-[2-(2-hydroxyethoxy)-6-(morpholin-4-yl)pyridin-4-yl]-4-methylphenyl]-3-(fluoromethyl)-4-(trifluoromethyl) pyrrolidine-1-carboxamide] | < 10 nM
Cc1cc(F)c(NC(=O)N2CCC3C2C3C(F)(F)F)cc1-c1cc(OCCO)nc(N2CCOCC2)c1 (single isomer, unassigned) [Example 71, N-[2-fluoro-5-[2-(2-hydroxyethoxy)-6-(morpholin-4-yl)pyridin-4-yl]-4-methylphenyl]-6-(trifluoromethyl)-2-azabicyclo[3.1.0]hexane-2-carboxamide] | 100 to 1000 nM
Cc1ccc(NC(=O)N2CC[C@H](CC(F)(F)F)C2)cc1-c1cnc(OC2CCOCC2)c(N2CCOCC2)c1 (single isomer, unassigned) [Example 194] | < 10 nM
Cc1cc(F)c(NC(=O)N2CC[C@@H](C3CC3)C2)cc1-c1cc(OCCO)nc(N2CCOCC2)c1 (single isomer, unassigned) [Example 48] | < 10 nM
Cc1ccc(NC(=O)N2CCC(=C3CC3)C2)cc1-c1cc(OCCO)nc(N2CCOCC2)c1 [Example 145, 3-cyclopropylidene-N-[3-[2-(2-hydroxyethoxy)-6-(morpholin-4-yl)pyridin-4-yl]-4-methylphenyl]pyrrolidine-1-carboxamide] | < 10 nM
Cc1cc(F)c(NC(=O)N2CC(C)C(C(F)(F)F)C2)cc1-c1cc(OCCO)nc(N2CCOCC2)c1 (single isomer, unassigned) [Example 53, N-[2-fluoro-5-[2-(2-hydroxyethoxy)-6-(morpholin-4-yl)pyridin-4-yl]-4-methylphenyl]-3-methyl-4-(trifluoromethyl)pyrrolidine-1-carboxamide] | < 10 nM
Cc1cc(F)c(NC(=O)N2CCOC(C(F)(F)F)C2C)cc1-c1cc(OCCO)nc(N2CCOCC2)c1 (single isomer, unassigned) [Example 113] | < 10 nM
Cc1cc(F)c(NC(=O)N2CCC(C(O)C(F)(F)F)C2)cc1-c1cc(OCCO)nc(N2CCOCC2)c1 (centres unmarked) [Example 76, N-[2-fluoro-5-[2-(2-hydroxyethoxy)-6-(morpholin-4-yl)pyridin-4-yl]-4-methylphenyl]-3-(2,2,2-trifluoro-1-hydroxyethyl)pyrrolidine-1-carboxamide] | < 10 nM
Cc1ccc(NC(=O)N2CC[C@@H](C(F)(F)F)C2)cc1-c1cnc(OCCO)c(N2CCOCC2)c1 (single isomer, unassigned) [Example 14] | < 10 nM

More lines, now with the values ahead:

IC50 | SMILES
< 10 nM | Cc1ccc(NC(=O)N2CCC(CC(F)(F)F)C2)cc1-c1cc(O[C@@H]2CCNC2)nc(N2CCOCC2)c1 (stereo partly drawn) [Example 203, N-(4-methyl-3-(2-morpholino-6-((R)-pyrrolidin-3-yloxy)pyridin-4-yl)phenyl)-3-(2,2,2-trifluoroethyl)pyrrolidine-1-carboxamide]
< 10 nM | Cc1ccc(NC(=O)N2CC=C(CC(F)(F)F)C2)cc1-c1cc(OCC(C)(C)O)nc(N2CCOCC2)c1 [Example 216, N-[3-[2-(2-hydroxy-2-methylpropoxy)-6-(morpholin-4-yl)pyridin-4-yl]-4-methylphenyl]-3-(2,2,2-trifluoroethyl)-2,5-dihydropyrrole-1-carboxamide]
< 10 nM | Cc1ccc(NC(=O)N2CC[C@H](OC(F)(F)F)C2)cc1-c1cc(OC[C@@H](C)O)nc(N2CCOCC2)c1 [Example 155, (3S)-N-(3-[2-[(2R)-2-hydroxypropoxy]-6-(morpholin-4-yl)pyridin-4-yl]-4-methylphenyl)-3-(trifluoromethoxy)pyrrolidine-1-carboxamide]
< 10 nM | Cc1ccc(NC(=O)N2CC[C@@H](CC(F)(F)F)C2)cc1-c1cc(OC(C)(C)CO)nc(N2CCOCC2)c1 [Example 232, (S)-N-(3-(2-((1-hydroxy-2-methylpropan-2-yl)oxy)-6-morpholinopyridin-4-yl)-4-methylphenyl)-3-(2,2,2-trifluoroethyl)pyrrolidine-1-carboxamide]
< 10 nM | Cc1ccc(NC(=O)N2CC[C@H](OC(F)(F)F)C2)cc1-c1cc(OC[C@H](C)O)nc(N2CCOCC2)c1 [Example 150, (3S)-N-(3-[2-[(2S)-2-hydroxypropoxy]-6-(morpholin-4-yl)pyridin-4-yl]-4-methylphenyl)-3-(trifluoromethoxy)pyrrolidine-- carboxamide]
< 10 nM | Cc1ccc(NC(=O)N2CCC(CC(F)(F)F)C2)cc1-c1cc(O[C@@H]2CCN(C)C2)nc(N2CCOCC2)c1 (stereo partly drawn) [Example 202, N-(4-methyl-3-(2-(((R)-1-methylpyrrolidin-3-yl)oxy)-6-morpholinopyridin-4-yl)phenyl)-3-(2,2,2-trifluoroethyl)pyrrolidine-1-carboxamide]
< 10 nM | Cc1ccc(NC(=O)N2CC[C@@H](SC(F)(F)F)C2)cc1-c1cc(OCCO)nc(N2CCOCC2)c1 (single isomer, unassigned) [Example 117]
< 10 nM | Cc1cc(F)c(NC(=O)N2CCC(CC(F)(F)F)C2)cc1-c1cc(OCCO)nc(N2CCOCC2)c1 (stereo in doubt) [Example 37, (3R)-N-[2-fluoro-5-[2-(2-hydroxyethoxy)-6-(morpholin-4-yl)pyridin-4-yl]-4-methylphenyl]-3-(2,2,2-trifluoroethyl)pyrrolidine-1-carboxamide]
< 10 nM | Cc1ccc(NC(=O)N2CC[C@@H](CC(F)(F)F)C2)cc1-c1cc(OC2CNC2)nc(N2CCOCC2)c1 [Example 204, (S)-N-(3-(2-(azetidin-3-yloxy)-6-morpholinopyridin-4-yl)-4-methylphenyl)-3-(2,2,2-trifluoroethyl)pyrrolidine-1-carboxamide]
< 10 nM | Cc1ccc(NC(=O)N2CC[C@@H](CC(F)(F)F)C2)cc1-c1cc(OC[C@@H](C)O)nc(N2CCO[C@H](C)C2)c1 [Example 228, (S)-N-(3-(2-((R)-2-hydroxypropoxy)-6-((R)-2-methylmorpholino)pyridin-4-yl)-4-methylphenyl)-3-(2,2,2-trifluoroethyl)pyrrolidine-1-carboxamide]
< 10 nM | Cc1ccc(NC(=O)N2CC[C@H](OC(F)(F)F)C2)cc1-c1cc(OC[C@@H](O)CO)nc(N2CCOCC2)c1 [Example 143, (3S)-N-(3-[2-[(2S)-2,3-dihydroxypropoxy]-6-(morpholin-4-yl)pyridin-4-yl]-4-methylphenyl)-3-(trifluoromethoxy)pyrrolidine-1-carboxamide]
< 10 nM | Cc1ccc(NC(=O)N2CC[C@H](OCC(F)(F)F)C2)cc1-c1cc(OCCO)nc(N2CCOCC2)c1 [Example 137, (3S)-N-[3-[2-(2-hydroxyethoxy)-6-(morpholin-4-yl)pyridin-4-yl]-4-methylphenyl]-3-(2,2,2-trifluoroethoxy)pyrrolidine-1-carboxamide]
